Assay results reported in patent EP0412158A1, “ONCOSTATIC DRUG” (priority 1987, dated 1988).
Several values for one entry are separate records, joined by “and”; a condition that tells them apart may be missing. Equal entries are not always repeated. Marks after values point to notes of the source that are not given here.

Columns and labels:
[1] = test system: human breast cancer (MX-1); experiment: Human breast cancer MX-1, SRC method (Examples 29 and 30); type: in vivo, female ICR/cd-1 mice; conditions: for antineoplastic activity: result in words
methyl cholanthrene A [2] = experiment: Methyl cholanthrene A tumor, evaluation by extension of period of survival (Examples 7 to 11); type: in vivo, female BALB/C mice; conditions: No. 2; for Average number of days of survival / Number of toxically killed mice/total number of mice / T/control: ip×9; for Change in body weight: ip×9, D1~D9; for T/control: days of survival
Procedure: The aforementioned compounds, A to D, were severally dissolved in distilled water to obtain aqueous solutions containing the compounds in a fixed concentration of 10 mg/ml. To the female BALB/C mice (five weeks old) to which methyl cholanthrene A had been transplanted in a ratio of 1.0 x 10^5 cells per mouse, […] to determine the mices' periods of survival. For comparison, mice to which no antineoplastic drug was administered and mice to which aminonitroso urea was administered were similarly tested.

[3] = test system: methyl cholanthrene A tumor; experiment: Antineoplastic activity against transplanted methyl cholanthrene A tumor, evaluation by size of tumor (Examples 1 to 6); type: in vivo, female BALB/C mice; conditions: No. 3, ip×9; for Change in body weight: body weight 13 days after transplantation; for T/control: tumor weight
Procedure: By dissolving alkylammonium salt of polymolybdic acid [NH3C3H7(iso)]s [Mo7O24] • 3H2O (Compound A) and other compounds (Compounds B to D) severally in distilled water, aqueous solutions containing the compounds in a fixed concentration of 10 mg/ml were obtained. These aqueous solutions were administered to female BALB/C mice (five weeks old) to which methyl cholanthrene A tumor had been transplanted to test the compounds for antineoplastic activity. To be specific, methyl cholanthrene A was transplanted to the mice in a ratio of 1.0 x 10^5 cells per mouse and the aqueous solutions were continuously administered to the mice by intraperitoneal injection ([…]) for nine days. On elapse of 14 days following the start of the administration, the tumors in the mice were measured. For comparison, mice to which no antineoplastic .drug was administered and mice to which aminonitroso urea was administered were tested by following the procedure described above.

MM-46 breast cancer [4] = type: in vivo, female C3H/He mice; conditions: 100 mg/kg, ip × 9
Procedure: The active compounds, I to L, mentioned above were severally dissolved in distilled water to obtain aqueous solutions containing the compounds in a fixed concentration of 10 mg/ml. To female C3H/He mice (five weeks old) to which the MM-46 breast cancer had been transplanted in a ratio of 1.0 x 10^5 cells per mouse, the aqueous solutions were continuously administered at a dose of 100 mg/kg of body weight by intraperitoneal injection for nine days to determine the mice's periods of survival. For comparison, mice to which no aqueous solution was administered and mice to which aminonitrosourea was administered were similarly tested.

MM-46 breast cancer [5] = experiment: MM-46 breast cancer, evaluation by size of tumor (Examples 21 to 24); type: in vivo, female C3H/He mice; conditions: for Average weight of tumor / Number of tumorless mice /total number of mice / T/control: 100 mg/kg; for Average weight of tumor / Number of tumorless mice /total number of mice: ip × 9; for T/control: ip×9, tumor weight
Procedure: A polymolybdate, K6[Mo7022(02)2]8H20 (Compound I), and the aforementioned other compounds (Compounds J to L) were severally dissolved in distilled water to obtain aqueous solutions containing the compounds in a fixed concentration of 10 mg/mi. To female C3H/He mice (five weeks old) to which MM-46 breast cancer had been transplanted, the aqueous solutions were administered to test the compounds for antineoplastic activity. To be more specific, the MM-46 breast cancer was transplanted to the mice at a ratio of 5.0 x 10^5 cells per mouse and the aqueous solutions were continuously administered (at a dose of 100 mg/kg of body weight) by intraperineal injection for nine days. On elapse of 14 days after the stop of the administration, the size of tumor in the mice was measured. For comparison, mice to which the aqueous solution was not administered and mice to which aminonitroso urea was administered were similarly tested.

methyl cholanthrene A [6] = experiment: Methyl cholanthrene A tumor, evaluation by elongation of period of survival (Examples 31, 34 and 35); type: in vivo, female BALB/C mice; conditions: for Average number of days of survival ±SE / ILS / Number of mice of no tumor/total number of mice: 25 mg/kg, ip × 9; for Number of mice of no tumor/total number of mice: observed 60 days after transplantation; for Change in body weight after elapse of 10 days: mouse, in vivo
Procedure: The active compounds, M to 0, mentioned above were severally dissolved in distilled water to obtain aqueous solutions containing the compounds in a fixed concentration of 10 mg/ml. To be specific, to female BALB/C mice (five weeks old) to which methyl cholanthrene A had been transplanted in a ratio of 1.0 x 10^5 cells per mouse, […] for 9 consecutive days to determine the mice's periods of survival. For comparison, mice to which no aqueous solution was administered and mice to which aminonitrosourea was administered were similarly tested.

[7] = test system: methyl cholanthrene A tumor; experiment: Methyl cholanthrene A tumor, evaluation by size of tumor (Examples 31 to 33); type: in vivo, female BALB/C mice; set-up: Average weight of tumor ± SE / Range of average tumor weight after elapse of 21 days ± SE: unit not given here; conditions: 25 mg/kg, ip × 9; for Average weight of tumor ± SE: after elapse of 14 days
Procedure: A heteropoly acid salt, Na5[IM06O24]•34H2O (Compound M), and other compounds (Compounds N and O ) were severally dissolved in distilled water to obtain aqueous solutions containing the salts in a fixed concentration of 10 mg/ml. To female BALB/C mice (five weeks old) to which methyl cholanthrene A tumor had been transplanted, the aqueous solutions were administered to test the compounds for antineoplastic activity. To be specific, the methyl cholanthrene A was transplanted to the mice at a ratio of 1.0 x 10^5 cells per mouse and the aqueous solutions were administered ([…]) for 9 consecutive days by intraperitoneal injection. On elapse of 14 and 21 days after the stop of the administration, the sizes of tumors in the mice were measured. For comparison, mice to which no aqueous solution was administered and mice to which aminonitrosourea was administered were similarly tested.

[8] = 30 mg/kg ip(×5), individual mice
[9] = 129 mg/kg po(×5), individual mice
[10] = 257 mg/kg po(×5), individual mice
[11] = 100 mg/kg ip(×5), individual mice
[12] = 100 mg/kg ip(×5), individual mice, listed as Compound II
[13] = 200 mg/kg ip(×5), individual mice, listed as Compound II

## O=c1[nH]cc(F)c(=O)[nH]1 [Compound 5-FU, 5-fluorouracil]
[1]; 30 mg/kg ip(×5)
  T/C: 56.48* %
[1]; 30 mg/kg ip(×5), group mean
  T7/To: 0.779±0.072
[1]; [8]
  T7/To: 0.839 and 0.576 and 0.917 and 0.786
  Tumor 7 days after transplantation (T7): 13.0 omu and 7.5 omu and 16.5 omu and 11.0 omu

## O.O.[NH4+].[NH4+].[NH4+].[NH4+].[NH4+].[NH4+].[O]=[Mo](=[O])([O-])[O][Mo](=[O])(=[O])[O][Mo](=[O])([O-])([O-])[O][Mo](=[O])(=[O])[O][Mo](=[O])([O-])([O-])[O][Mo](=[O])(=[O])[O][Mo](=[O])(=[O])[O-] [Compound D, [NH4]6 [Mo7O24]. 2H20]
Methyl cholanthrene A [2]; 100 mg/kg
  Average number of days of survival: 33.3±2.7(8) days
  Number of toxically killed mice/total number of mice: 0/8
  Change in body weight: +1.20 g
  T/control: 133.3
[3]; 100 mg/kg
  Average weight of tumor: 1790.5±189.3(8) mg
  Number of tumorless mice /total number of mice: 0/8
  Change in body weight: +1.20 g
  T/control: 0.695

## CCCCCCNC(=O)n1cc(F)c(=O)[nH]c1=O [HCFU(Mifur ol)]
[1]; 129 mg/kg po(×5)
  T/C: 61.15* %
[1]; 129 mg/kg po(×5), group mean
  T7/To: 0.844±0.040
  W7/Wo: 1.104±0.037
[1]; [9]
  Body weight 7 days after transplantation (W7): 21.3 g and 22.7 g and 21.8 g and 23.7 g
  T7/To: 0.929 and 0.885 and 0.741 and 0.821
  Tumor 7 days after transplantation (T7): 13.0 omu and 11.5 omu (2×) and 10.5 omu
  W7/Wo: 1.087 and 1.207 and 1.028 and 1.097
[1]; 257 mg/kg po(×5)
  T/C: 66.82* %
[1]; 257 mg/kg po(×5), group mean
  T7/To: 0.922±0.042
  W7/Wo: 1.080±0.035
[1]; [10]
  Body weight 7 days after transplantation (W7): 21.7 g and 23.2 g and 18.2 g and 19.4 g
  T7/To: 0.896 and 1.037 and 0.833 and 0.923
  Tumor 7 days after transplantation (T7): 13.0 omu and 14.0 omu and 12.5 omu and 12.0 omu
  W7/Wo: 1.109 and 1.166 and 1.011 and 1.037

## K6 [Mo7O22(O2)2] • 8H2O [Compound I]
[1]; 100 mg/kg ip(×5)
  T/C: 57.28 8* %
[1]; 100 mg/kg ip(×5), group mean
  T7/To: 0.790±0.077
  W7/Wo: 1.068±0.008
[1]; [11]
  Body weight 7 days after transplantation (W7): 21.0 g and 20.5 g and 21.4 g and 20.6 g
  T7/To: 0.875 and 0.941 and 0.760 and 0.586
  Tumor 7 days after transplantation (T7): 10.5 omu and 8.0 omu and 9.5 omu and 8.5 omu
  W7/Wo: 1.061 and 1.057 and 1.092 and 1.062
[1]
  antineoplastic activity: strong antineoplastic activity
MM-46 breast cancer [4]
  Average number of days of survival: 33.1±2.9(8) days
  Average weight of tumor after 14 days: 1135 ±185(8) mg
  Ratio of elongation of life (5): 100.8
  ratio of elongation of life: 100.8%
MM-46 breast cancer [5]
  Average weight of tumor: 1134.9±184.5(1 0) mg
  Number of tumorless mice /total number of mice: 0/10
  T/control: 0.397
MM-46 breast cancer [5]; 100 mg/kg.ip for nine days, judged by increase of body weight, result in words
  toxicity: very low toxicity

## K6 [Mo7O23(O2)] • 8H2O [Compound K]
MM-46 breast cancer [4]
  Average number of days of survival: 32.1±2.7(8) days
  Average weight of tumor after 14 days: 1140± 221(8) mg
  Ratio of elongation of life (5): 94.5
MM-46 breast cancer [5]
  Average weight of tumor: 1139.5±221.1(8 ) mg
  Number of tumorless mice /total number of mice: 0/8
  T/control: 0.399

## Na3H6 [CrMo6O24] • 8H20 [Compound O]
Methyl cholanthrene A [6]
  Average number of days of survival ±SE: 35.10±3.16(10)*** * days
  ILS: 41.0%
  Number of mice of no tumor/total number of mice: 0/10
  Change in body weight after elapse of 10 days: (+)1.22
[7]
  Average weight of tumor ± SE: 585.6±166.8 (10)
[7]; tumor weight after 14 days
  T/C: 0.784
[7]; tumor weight after 21 days
  T/C: 0.832

## [NH3 (iso)]6 [Mo7O22(O2)2] • 5H20 [Compound J]
[1]; 100 mg/kg ip(×5)
  T/C: 63.53* %
[1]; 100 mg/kg ip(×5), group mean
  T7/To: 0.876±0.037
[1]; [12]
  T7/To: 0.913 and 0.792 and 0.840 and 0.962
  Tumor 7 days after transplantation (T7): 10.5 omu (2×) and 9.5 omu and 12.5 omu
[1]; 200 mg/kg ip(×5)
  T/C: 73.02* %
[1]; 200 mg/kg ip(×5), group mean
  T7/To: 1.007±0.087
[1]; [13]
  T7/To: 1.077 and 1.222 and 0.852 and 0.880
  Tumor 7 days after transplantation (T7): 14.0 omu and 11.0 omu (2×) and 11.5 omu
[1]
  antineoplastic activity: same degree of antineoplastic activity as that of HCFU
MM-46 breast cancer [4]
  Average number of days of survival: 40.6±4.1(6) days
  Average weight of tumor after 14 days: 385±152 (8) mg
  Ratio of elongation of life (5): 146.2
MM-46 breast cancer [5]
  Average weight of tumor: 385.1±152.3(10 ) mg
  Number of tumorless mice /total number of mice: 5/10
  T/control: 0.135

## [NH3 (iso)]6 [Mo7O23(O2)] • 5H20 [Compound L]
MM-46 breast cancer [4]
  Average number of days of survival: 32.1±3.9(8) days
  Average weight of tumor after 14 days: 1086 ± 132(8) mg
  Ratio of elongation of life (5): 94.5
MM-46 breast cancer [5]
  Average weight of tumor: 1085.6±133.2** ** mg
  Number of tumorless mice /total number of mice: 0/8
  T/control: 00.380

## [NH3C3H7(iso)]4 (Mo13O40] 1/3 • [Mo12O40H2]2/3 [Compound B]
Methyl cholanthrene A [2]; 25 mg/kg
  Average number of days of survival: 29.3±1.9(9) days
  Number of toxically killed mice/total number of mice: 0/9
  Change in body weight: -0.36 g
  T/control: 130.4
[3]; 25 mg/kg
  Average weight of tumor: 1753.1±132.4(9) mg
  Number of tumorless mice /total number of mice: 0/9
  Change in body weight: -0.36 g
  T/control: 0.681

## [NH3C3H7(iso)]6 [Mo7O24H] mixture [Compound C]
Methyl cholanthrene A [2]; 25 mg/kg
  Average number of days of survival: 30.2±2.0(10) days
  Number of toxically killed mice/total number of mice: 0/10
  Change in body weight: -2.19 g
  T/control: 134.2
[3]; 25 mg/kg
  Average weight of tumor: 1425.2±130.6(10) mg
  Number of tumorless mice /total number of mice: 0/10
  Change in body weight: -2.19 g
  T/control: 0.553

## [NH4]3 H6 [CoMo6O24] • 7H20 [Compound N]
Methyl cholanthrene A [6]
  Average number of days of survival ±SE: 39.30±3.73(10)*** * days
  ILS: 57.0%
  Number of mice of no tumor/total number of mice: 2/10
  Change in body weight after elapse of 10 days: (+)0.56
[7]
  Range of average tumor weight after elapse of 21 days ± SE: 693.6±144.3 (9)
  Average weight of tumor ± SE: 448.5±166.0 (10)
[7]; tumor weight after 14 days
  T/C: 0.600
[7]; tumor weight after 21 days
  T/C: 0.301
